Values of other authors, collected in patent EP4599698A1, “PRODUCTS COMPRISING SENSORY AGENTS” (Nicoventures Trading Limited, priority 2024, dated 2025).

Columns and labels:
[1] = molecular target: transient receptor potential vanilloid 1/TRPV1 (Homo sapiens, UniProt Q8NER1)
TRP ankyrin 1/TRPA1 = TRP ankyrin 1/TRPA1 (Homo sapiens, UniProt O75762)
[2] = when isolated; converts via isomerization into trans-bixin (β-bixin)
TRP melastatin 8/TRPM8 = TRP melastatin 8/TRPM8 (Homo sapiens, UniProt Q7Z2W7)
TRP melastatin 8/TRPM8, sequence (Q7Z2W7 whole entry): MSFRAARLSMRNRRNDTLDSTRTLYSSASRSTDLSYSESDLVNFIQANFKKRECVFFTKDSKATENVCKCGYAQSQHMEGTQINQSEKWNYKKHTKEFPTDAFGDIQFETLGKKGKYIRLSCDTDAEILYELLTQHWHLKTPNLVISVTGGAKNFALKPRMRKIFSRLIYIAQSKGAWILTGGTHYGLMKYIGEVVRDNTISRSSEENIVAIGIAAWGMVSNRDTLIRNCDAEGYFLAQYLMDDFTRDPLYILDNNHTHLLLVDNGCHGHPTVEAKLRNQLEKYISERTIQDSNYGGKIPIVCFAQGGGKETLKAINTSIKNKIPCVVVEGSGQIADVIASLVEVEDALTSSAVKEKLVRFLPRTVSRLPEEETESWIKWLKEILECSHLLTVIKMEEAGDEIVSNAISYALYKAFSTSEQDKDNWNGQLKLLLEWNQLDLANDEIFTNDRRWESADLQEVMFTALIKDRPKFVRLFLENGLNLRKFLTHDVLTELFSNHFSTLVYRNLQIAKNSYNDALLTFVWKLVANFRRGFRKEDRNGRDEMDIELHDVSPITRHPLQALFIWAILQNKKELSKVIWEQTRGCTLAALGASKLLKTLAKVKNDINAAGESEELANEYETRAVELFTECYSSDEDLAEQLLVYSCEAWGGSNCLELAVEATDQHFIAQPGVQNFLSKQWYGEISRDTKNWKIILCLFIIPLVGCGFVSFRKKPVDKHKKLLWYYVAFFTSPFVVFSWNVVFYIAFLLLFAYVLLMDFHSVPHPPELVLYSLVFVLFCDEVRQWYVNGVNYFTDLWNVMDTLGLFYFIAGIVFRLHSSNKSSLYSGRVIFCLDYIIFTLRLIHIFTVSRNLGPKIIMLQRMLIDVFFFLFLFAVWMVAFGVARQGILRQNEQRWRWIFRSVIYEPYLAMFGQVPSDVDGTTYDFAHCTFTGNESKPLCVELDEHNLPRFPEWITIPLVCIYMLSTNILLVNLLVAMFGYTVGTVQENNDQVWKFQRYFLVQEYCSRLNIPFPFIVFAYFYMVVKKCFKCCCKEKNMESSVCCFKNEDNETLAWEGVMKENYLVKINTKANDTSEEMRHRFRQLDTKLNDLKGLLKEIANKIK

TRP ankyrin 1/TRPA1, sequence (O75762 whole entry): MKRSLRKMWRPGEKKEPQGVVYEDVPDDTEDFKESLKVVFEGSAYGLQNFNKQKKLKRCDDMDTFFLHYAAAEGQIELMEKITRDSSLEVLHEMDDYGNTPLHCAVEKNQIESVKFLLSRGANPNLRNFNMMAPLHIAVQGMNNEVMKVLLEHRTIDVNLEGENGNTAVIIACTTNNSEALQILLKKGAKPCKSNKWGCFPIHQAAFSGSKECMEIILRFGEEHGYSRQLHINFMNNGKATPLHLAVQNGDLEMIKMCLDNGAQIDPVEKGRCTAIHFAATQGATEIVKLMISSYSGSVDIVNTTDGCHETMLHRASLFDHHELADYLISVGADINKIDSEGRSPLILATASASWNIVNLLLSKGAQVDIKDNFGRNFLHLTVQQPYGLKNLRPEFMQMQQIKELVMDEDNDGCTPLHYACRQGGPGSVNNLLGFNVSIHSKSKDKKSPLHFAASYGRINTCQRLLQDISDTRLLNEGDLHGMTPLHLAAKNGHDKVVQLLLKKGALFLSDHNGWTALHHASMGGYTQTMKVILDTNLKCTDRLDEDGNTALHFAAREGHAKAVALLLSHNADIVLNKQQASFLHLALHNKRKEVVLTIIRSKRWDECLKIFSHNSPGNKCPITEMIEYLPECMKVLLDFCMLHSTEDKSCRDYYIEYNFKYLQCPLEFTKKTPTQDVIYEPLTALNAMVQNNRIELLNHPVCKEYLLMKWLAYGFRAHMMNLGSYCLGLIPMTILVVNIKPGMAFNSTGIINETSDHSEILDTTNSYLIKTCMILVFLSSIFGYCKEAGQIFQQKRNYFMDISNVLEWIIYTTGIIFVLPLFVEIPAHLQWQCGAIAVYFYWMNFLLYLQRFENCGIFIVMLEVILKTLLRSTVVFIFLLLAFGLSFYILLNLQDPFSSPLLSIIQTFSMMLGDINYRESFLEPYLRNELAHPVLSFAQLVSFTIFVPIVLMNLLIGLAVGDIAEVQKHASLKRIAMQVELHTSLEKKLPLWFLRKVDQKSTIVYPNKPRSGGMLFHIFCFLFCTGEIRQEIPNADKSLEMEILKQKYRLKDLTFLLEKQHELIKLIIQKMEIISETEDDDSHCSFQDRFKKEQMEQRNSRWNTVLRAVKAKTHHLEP
transient receptor potential vanilloid 1/TRPV1, sequence (Q8NER1 whole entry): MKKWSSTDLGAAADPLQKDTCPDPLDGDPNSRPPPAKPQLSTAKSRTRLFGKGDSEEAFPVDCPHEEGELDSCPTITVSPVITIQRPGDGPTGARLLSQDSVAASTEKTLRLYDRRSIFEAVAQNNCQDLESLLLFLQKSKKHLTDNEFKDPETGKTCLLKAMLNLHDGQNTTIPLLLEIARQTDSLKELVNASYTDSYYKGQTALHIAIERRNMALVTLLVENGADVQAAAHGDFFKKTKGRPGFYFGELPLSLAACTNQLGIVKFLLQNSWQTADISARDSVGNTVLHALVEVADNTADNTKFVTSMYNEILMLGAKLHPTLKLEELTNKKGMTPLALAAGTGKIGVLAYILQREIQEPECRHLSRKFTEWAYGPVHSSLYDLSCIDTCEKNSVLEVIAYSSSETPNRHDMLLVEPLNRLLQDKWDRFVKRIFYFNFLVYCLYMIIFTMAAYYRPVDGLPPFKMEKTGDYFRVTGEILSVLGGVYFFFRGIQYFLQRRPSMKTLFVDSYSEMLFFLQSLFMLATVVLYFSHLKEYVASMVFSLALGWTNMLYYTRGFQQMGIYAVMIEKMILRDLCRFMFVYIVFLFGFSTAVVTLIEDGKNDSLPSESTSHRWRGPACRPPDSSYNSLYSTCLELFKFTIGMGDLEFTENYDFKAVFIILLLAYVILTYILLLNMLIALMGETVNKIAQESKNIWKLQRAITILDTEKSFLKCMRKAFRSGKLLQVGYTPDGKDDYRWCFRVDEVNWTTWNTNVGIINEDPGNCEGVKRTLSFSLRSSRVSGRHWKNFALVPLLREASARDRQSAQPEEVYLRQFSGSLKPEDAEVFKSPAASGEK

## C/C=C/C=C/C=C\CC/C=C/C(=O)NCC(C)(C)O [Hydroxyl-α-sanshool]
[1]
  agonist activity at TRPV1: agonist
TRP ankyrin 1/TRPA1
  agonist activity at TRPA1: agonist

## COC(=O)/C=C/C(C)=C\C=C\C(C)=C\C=C\C=C(C)\C=C\C=C(C)\C=C\C(=O)O [bixin, (2E,4E,6E,8E,10E,12E,14E,16Z,18E)-20-methoxy-4,8,13,17-tetramethyl-20-oxoicosa-2,4,6,8,10,12,14,16,18-nonaenoic acid]
other
  solubility in water: insoluble in water
[2]
  chemical stability: chemically unstable when isolated

## C=CC(C)(O)CCC=C(C)C (stereo not shown) [Linalool]
TRP melastatin 8/TRPM8
  agonist activity at TRPM8: weak agonist
TRPA1-containing neurons
  stimulation of TRPA1-containing neurons: shown to stimulate

## CC(/C=C/C=C(C)/C=C/C(=O)O)=C\C=C\C=C(C)\C=C\C=C(C)\C=C\C(=O)O (stereo in doubt) [norbixin, (2E,4E,6E,8E,10E,12E,14E,16E,18E)-4,8,13,17-tetramethylicosa-2,4,6,8,10,12,14,16,18-nonaenedioic acid]
other
  solubility in water: water soluble
